Data reported in US12577213B2 (NINGBO COMBIREG PHARMACEUTICAL TECHNOLOGY CO., LTD., priority 2020, dated 2026).
Like-named read-outs stand apart in the source and are kept apart here.

What was measured:
[1] = system: A549 (non-small cell lung cancer); assay: NCI method SRB growth inhibition, A549; format: cell-based; conditions: Homo sapiens; A549, treated 48 hours, SRB stain
Excerpt: (§1) In this embodiment, the method of National Cancer Institute (NCI) was used to evaluate the anti-tumor activity of the embodiment compounds in the present disclosure. Nine representative cell lines were selected for activity evaluation, including A549 (non-small cell lung cancer), HCT116 (colon cancer), SF295 (central nervous system tumor), LOX-IMVI (melanoma), 786-0 (renal cancer), K562 (leukemia), PC-3 (prostate cancer), OVCAR-3 (ovarian cancer) and HS 578T (breast cancer).
(§2) The specific method was as follows: 60 tumor cell lines of 9 kinds of human cancers were used to evaluate the inhibitory activity of the compound in vitro. A test group, a parallel control group and a vehicle control group were set up. The parallel control group was fixed immediately before the compound was added; the cells in the test group were fixed after being treated with the compound for 48 hours; the vehicle control group was fixed after an equal volume of complete medium was added for 48 hours. Sulforhodamine B (SRB) was used to stain, and the OD value was measured at a wavelength of 515 nm. The specific calculation method was as follows: the OD value of the parallel control group was recorded as Tz, the OD value of the vehicle control group was recorded as C, and the OD value of the test group was recorded as (Ti). If Ti≥Tz, it means that the cells still grow after the drug was added, and the growth rate %=[(Ti−Tz)/(C−Tz)]×100; if Ti<Tz, it means that the cells are killed after the drug was added, and the growth rate %=[(Ti−Tz)/Tz]×100. Three parameters were used to evaluate the anti-tumor activity of compounds in this method: 50% growth inhibitory concentration (GI50): i.e. the compound concentration at [(Ti−Tz)/(C−Tz)]×100=50; complete growth inhibitory concentration (TGI): the compound concentration at Ti=Tz; the drug concentration required to kill 50% of the cells (LC50): i.e. the compound concentration at [(Ti−Tz)/Tz]×100=−50.
(§3) The inhibitory activities of the embodiment compounds on nine representative tumor cell lines were listed in detail in Table 1. Wherein, the GI50 value means “50% growth inhibition rate”, that is, the concentration of the compound to be tested when it can inhibit […] of cell growth; “ND” means not detected.

[2] = system: SF295 (central nervous system tumor); assay: NCI method SRB growth inhibition, SF295; format: cell-based; conditions: Homo sapiens, SF-295; SF295, treated 48 hours, SRB stain
Excerpt: as §1, §2, §3

HCT116 (colon cancer) = assay: NCI method SRB growth inhibition, HCT116; format: cell-based; conditions: Homo sapiens, HCT-116; HCT116, treated 48 hours, SRB stain
Excerpt: as §1, §2, §3

HS 578T (breast cancer) = assay: NCI method SRB growth inhibition, HS 578T; format: cell-based; conditions: Homo sapiens, HS578T, treated 48 hours, SRB stain
Excerpt: as §1, §2, §3

PC-3 (prostate cancer) = assay: NCI method SRB growth inhibition, PC-3; format: cell-based; conditions: Homo sapiens; PC-3, treated 48 hours, SRB stain
Excerpt: as §1, §2, §3

LOX-IMVI (melanoma) = assay: NCI method SRB growth inhibition, LOX-IMVI; format: cell-based; conditions: Homo sapiens, treated 48 hours, SRB stain
Excerpt: as §1, §2, §3

786-0 (renal cancer) = assay: NCI method SRB growth inhibition, 786-0; format: cell-based; conditions: Homo sapiens; 786-0, treated 48 hours, SRB stain
Excerpt: as §1, §2, §3

K562 (leukemia) = assay: NCI method SRB growth inhibition, K562; format: cell-based; conditions: Homo sapiens; K562, treated 48 hours, SRB stain
Excerpt: as §1, §2, §3

OVCAR-3 (ovarian cancer) = assay: NCI method SRB growth inhibition, OVCAR-3; format: cell-based; conditions: Homo sapiens; OVCAR-3, treated 48 hours, SRB stain
Excerpt: as §1, §2, §3

[3] = Liver microsomes stability; format: in vitro ADME, human; conditions: 1 μM compound, 1 mg/mL human liver microsomes, 1 mM NADPH; for half-life at 1 μM: read-out: T½ of HLM
Description: The compound to be tested with final concentration of 1 μM was incubated with 1 mg/mL of human liver microsomes and 1 mM of NADPH, and a group without NADPH was set as a negative control. The reaction mixture was quenched with methanol at five time points of 0, 5, 15, 30 and 60 min, respectively, then centrifuged at 2500 rpm for 20 min to precipitate proteins, and the resulting supernatant was analyzed by LC-MS/MS. The data was analyzed and the k value and half-life T1/2 was calculated, T1/2(min)=0.693/k.
Wherein, compounds a, b and c are active compounds disclosed in patent No. ZL201610154581.3.

| microsomal CLint at 1 μM [3] | half-life at 1 μM ([3]; human, human liver microsomes) | SMILES | GI50 [1] | GI50 [2] | GI50 (HCT116 (colon cancer)) | GI50 (HS 578T (breast cancer)) | GI50 (PC-3 (prostate cancer)) | GI50 (LOX-IMVI (melanoma)) | GI50 (786-0 (renal cancer)) | GI50 (K562 (leukemia)) | GI50 (OVCAR-3 (ovarian cancer)) | half-life at 1 μM [3] | microsomal CLint at 1 μM ([3]; human, human liver microsomes) |
| --- | --- | --- | --- | --- | --- | --- | --- | --- | --- | --- | --- | --- | --- |
| 65.1 µL/min/mg | 10.6 min | [2H]C([2H])([2H])N1C(=O)c2cc(Oc3cc(C)cc(C)c3)c(NC(=O)c3cc(OC)c(OC)c(OC)c3Br)cc2NC(=O)[C@@H]1CC(=O)N(CC)CC [Compound 18, (S)-2-bromo-N-[3-[2-(diethylamino)-2-oxoethyl]-7-(3,5-dimethylphenoxy)-4-trideuteromethyl-2,5-dioxo-2,3,4,5-tetrahydro-1H-benzo[e][1,4]diazepin-8-yl]-3,4,5-trimethoxybenzamide] | < 5 nM | < 5 nM | < 5 nM | 15.4 nM | < 5 nM | < 5 nM | < 5 nM | < 5 nM | < 5 nM |  |  |
| 21.1 µL/min/mg | 32.9 min | [2H]C([2H])([2H])N1C(=O)c2cc(Oc3cc(C)cc(C)c3)c(NC(=O)c3cc(OC)c(OC)c(OC)c3Cl)cc2NC(=O)[C@@H]1CC(=O)N(C([2H])([2H])C([2H])([2H])[2H])C([2H])([2H])C([2H])([2H])[2H] [Compound 19, (S)-2-chloro-N-[3-[2-[bis(pentadeuteroethyl)amino]-2-oxoethyl]-7-(3,5-dimethylphenoxy)-4-(trideuteromethyl)-2,5-dioxo-2,3,4,5-tetrahydro-1H-benzo[e][1,4]diazepin-8-yl]-3,4,5-trimethoxybenzamide] | 5.9 nM | 11.8 nM | 5 nM | 80.7 nM | < 5 nM | < 5 nM | 19.7 nM | < 5 nM | 6.2 nM |  |  |
| 26.9 µL/min/mg | 25.8 min | [2H]C([2H])([2H])c1cc(Oc2cc3c(cc2NC(=O)c2cc(OC)c(OC)c(OC)c2Cl)NC(=O)[C@H](CC(=O)N(CC)CC)NC3=O)cc(C([2H])([2H])[2H])c1 [Compound 23, (S)-2-chloro-N-[3-[2-(diethylamino)-2-oxoethyl]-7-[3,5-bis(trideuteromethyl)phenoxy]-2,5-dioxo-2,3,4,5-tetrahydro-1H-benzo[e][1,4]diazepin-8-yl]-3,4,5-trimethoxybenzamide] | 11.6 nM | 10.5 nM | < 5 nM | 24.9 nM | 6.1 nM | < 5 nM | 67.5 nM | < 5 nM | 6.6 nM |  |  |
| 28.4 µL/min/mg | 24.4 min | [2H]c1c(C)c([2H])c(Oc2cc3c(cc2NC(=O)c2cc(OC)c(OC)c(OC)c2Cl)NC(=O)[C@H](CC(=O)N(CC)CC)NC3=O)c([2H])c1C [Compound 24, (S)-2-chloro-N-[3-[2-(diethylamino)-2-oxoethyl]-7-(3,5-dimethyl-2,4,6-trideuterophenoxy)-2,5-dioxo-2,3,4,5-tetrahydro-1H-benzo[e][1,4]diazepin-8-yl]-3,4,5-trimethoxybenzamide] | 207 nM | 135 nM | 123 nM | 188 nM | 39.5 nM | 65.8 nM | 276 nM | 25.5 nM | 87.6 nM |  |  |
| 29.8 µL/min/mg | 23.3 min | [2H]c1c(Oc2cc3c(cc2NC(=O)c2cc(OC)c(OC)c(OC)c2Cl)NC(=O)[C@H](CC(=O)N(CC)CC)NC3=O)c([2H])c(C([2H])([2H])[2H])c([2H])c1C([2H])([2H])[2H] [Compound 25, (S)-2-chloro-N-[3-[2-(diethylamino)-2-oxoethyl]-7-[3,5-bis(trideuteromethyl)-2,4,6-trideuterophenoxy]-2,5-dioxo-2,3,4,5-tetrahydro-1H-benzo[e][1,4]diazepin-8-yl]-3,4,5-trimethoxybenzamide] | 19.1 nM | 14.2 nM | < 5 nM | 30.3 nM | 5 nM | < 5 nM | 15.8 nM | < 5 nM | 8.3 nM |  |  |

More lines, now with the values behind:

| SMILES | microsomal CLint at 1 μM [3] | half-life at 1 μM ([3]; human, human liver microsomes) | GI50 [1] | GI50 [2] | GI50 (HCT116 (colon cancer)) | GI50 (HS 578T (breast cancer)) | GI50 (PC-3 (prostate cancer)) | GI50 (LOX-IMVI (melanoma)) | GI50 (786-0 (renal cancer)) | GI50 (K562 (leukemia)) | GI50 (OVCAR-3 (ovarian cancer)) | half-life at 1 μM [3] | microsomal CLint at 1 μM ([3]; human, human liver microsomes) |
| --- | --- | --- | --- | --- | --- | --- | --- | --- | --- | --- | --- | --- | --- |
| [2H]C([2H])([2H])OC(=O)C[C@@H]1NC(=O)c2cc(Oc3cc(C)cc(C)c3)c(NC(=O)c3cc(OC)c(OC)c(OC)c3Cl)cc2NC1=O [Compound 9, (S)-2-[8-(2-chloro-3,4,5-trimethoxybenzamido)-7-(3,5-dimethylphenoxy)-2,5-dioxo-2,3,4,5-tetrahydro-1H-benzo[e][1,4]diazepin-3-yl]acetic acid trideuteromethyl ester] | 5.9 µL/min/mg | 117 min | 23 nM | 15.2 nM | 14.8 nM | 40.5 nM | 13.1 nM | 13.9 nM | 44.8 nM | 17 nM | 8.6 nM |  |  |
| [2H]C([2H])([2H])Oc1cc(C(=O)Nc2cc3c(cc2Oc2cc(C)cc(C)c2)C(=O)N[C@@H](CC(=O)N2CCC(F)(F)CC2)C(=O)N3)c(Cl)c(OC([2H])([2H])[2H])c1OC([2H])([2H])[2H] [Compound 10, (S)-2-chloro-N-[3-[2-(4,4-difluoropiperidin-1-yl)-2-oxoethyl]-7-(3,5-dimethylphenoxy)-2,5-dioxo-2,3,4,5-tetrahydro-1H-benzo[e][1,4]diazepin-8-yl]-3,4,5-tris(trideuteromethoxy)benzamide] | 10.2 µL/min/mg | 68 min | 35.4 nM | 10.7 nM | 34.7 nM | 6.4 nM | < 5 nM | < 5 nM | 37 nM | < 5 nM | < 5 nM |  |  |
| [2H]C([2H])([2H])Oc1cc(C(=O)Nc2cc3c(cc2Oc2cc(C)cc(C)c2)C(=O)N(C)[C@@H](CC(=O)N2CCC(F)(F)CC2)C(=O)N3)c(Cl)c(OC([2H])([2H])[2H])c1OC([2H])([2H])[2H] [Compound 17, (S)-2-chloro-N-[3-[2-(4,4-difluoropiperidin-1-yl)-2-oxoethyl]-7-(3,5-dimethylphenoxy)-4-methyl-2,5-dioxo-2,3,4,5-tetrahydro-1H-benzo[e][1,4]diazepin-8-yl]-3,4,5-tris(trideuteromethoxy)benzamide] | 34.5 µL/min/mg | 20.1 min | 15.8 nM | 8 nM | 44.9 nM | 5.6 nM | < 5 nM | < 5 nM | 10 nM | < 5 nM | 8.4 nM |  |  |
| [2H]C([2H])([2H])Oc1cc(C(=O)Nc2cc3c(cc2Oc2cc(C)cc(C)c2)C(=O)N[C@@H](CC(=O)C(C)(C)P(=O)(OC)OC)C(=O)N3)c(Br)c(OC([2H])([2H])[2H])c1OC([2H])([2H])[2H] [Compound 26, (S)-dimethyl-(4-8-(2-bromo-3,4,5-tris(trideuteromethoxy)benzoyl)-7-(3,5-dimethylphenoxy)-2,5-dioxo-2,3,4,5-tetrahydro-1H-benzo[e][1,4]diazepin-3-yl)-2-methyl-3-oxobutyl-2-yl)dimethyl phosphate] |  |  | 13 nM | 42.7 nM | 14.2 nM | 10 nM | < 5 nM | 6.2 nM | 57.4 nM | < 5 nM | 6 nM | 217 min | 3.2 µL/min/mg |
